Tested on: NCI-H1341 complex spheroids, percent test/control
Experiment: Anticancer human tumor NCI-H1341 cell line growth inhibition [AhR];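 further: spheroids exposed to agents for seven days before readout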
Conditions: for IC50: curve of first compound; for viability, T/C: stronger effect = lower value
Outline: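 Agents were dosed in half-log steps down from roughly clinical Cmax, or from 10 microM where Cmax was unknown, alone and with AhR antagonists. Read-out: percent test/control growth of tumor spheroids containing HUVEC and MSC stromal cells.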

[1] = second compound 0.1 µM, first compound 0.0316 µM
[2] = second compound 0.1 µM, first compound 0.1 µM
[3] = second compound 0.1 µM, first compound 0.316 µM
[4] = second compound 0.1 µM, first compound 1 µM
[5] = second compound 0.316 µM, first compound 0.0316 µM
[6] = second compound 0.316 µM, first compound 0.1 µM
[7] = second compound 0.316 µM, first compound 0.316 µM
[8] = second compound 0.316 µM, first compound 1 µM
[9] = second compound 1 µM, first compound 0.0316 µM
[10] = second compound 1 µM, first compound 0.1 µM
[11] = second compound 1 µM, first compound 0.316 µM
[12] = second compound 1 µM, first compound 1 µM
[13] = second compound 3.16 µM, first compound 0.0316 µM
[14] = second compound 3.16 µM, first compound 0.1 µM
[15] = second compound 3.16 µM, first compound 0.316 µM
[16] = second compound 3.16 µM, first compound 1 µM
[17] = second compound 10 µM, first compound 0.0316 µM
[18] = second compound 10 µM, first compound 0.1 µM
[19] = second compound 10 µM, first compound 0.316 µM
[20] = second compound 10 µM, first compound 1 µM

CC1COCCN1c1cc(-c2ccnn2C)c2ccnc(-c3ccn[nH]3)c2n1 (stereo not given) + Cc1cncc(-c2nc(NCCc3c[nH]c4ccccc34)c3ncn(C(C)C)c3n2)c1 was tested, and the IC50 (second compound 0.1 µM) was 0.0413 µM, the IC50 (second compound 0.316 µM) was 0.0315 µM and the IC50 (second compound 1 µM) was 0.0354 µM. For the same compound, the IC50 (second compound 3.16 µM) was 0.031 µM, the IC50 (second compound 10 µM) was under 0.00316 µM and the viability, T/C (second compound 0.1 µM, first compound 0.00316 µM) was 95.1%. It also gave a viability, T/C (second compound 0.1 µM, first compound 0.01 µM) of 97%, a viability, T/C [1] of 57.8% and a viability, T/C [2] of 25.1%. It also gave a viability, T/C [3] of 25.7%, a viability, T/C [4] of 17.8% and a viability, T/C (second compound 0.316 µM, first compound 0.00316 µM) of 79.9%. The viability, T/C (second compound 0.316 µM, first compound 0.01 µM) was 94.4%, the viability, T/C [5] was 49.8% and the viability, T/C [6] was 26.8%. It also gave a viability, T/C [7] of 19.8%, a viability, T/C [8] of 18.7% and a viability, T/C (second compound 1 µM, first compound 0.00316 µM) of 77.5%. The viability, T/C (second compound 1 µM, first compound 0.01 µM) was 79.4%, the viability, T/C [9] was 51.6% and the viability, T/C [10] was 26.8%. For the same compound, the viability, T/C [11] was 23.9%, the viability, T/C [12] was 16.7% and the viability, T/C (second compound 3.16 µM, first compound 0.00316 µM) was 76%. The viability, T/C (second compound 3.16 µM, first compound 0.01 µM) was 66.2%, the viability, T/C [13] was 50% and the viability, T/C [14] was 32.1%. The viability, T/C [15] was 24.8%, the viability, T/C [16] was 16.9% and the viability, T/C (second compound 10 µM, first compound 0.00316 µM) was 21%. For the same compound, the viability, T/C (second compound 10 µM, first compound 0.01 µM) was 19%, the viability, T/C [17] was 16.5% and the viability, T/C [18] was 15.2%. The viability, T/C [19] was 12.2% and the viability, T/C [20] was 10.1%.

CC1(C)CCC(CN2CCN(c3ccc(C(=O)NS(=O)(=O)c4ccc(NCC5CCOCC5)c([N+](=O)[O-])c4)c(Oc4cnc5[nH]ccc5c4)c3)CC2)=C(c2ccc(Cl)cc2)C1 + CC(CO)NC(=O)c1cc(-c2ccc(Cl)cc2)nn(-c2cnn(C)c2)c1=O was tested, and the IC50 (second compound 0.1 µM) was 2.37 µM, the IC50 (second compound 0.316 µM) was 2.15 µM and the IC50 (second compound 1 µM) was 1.71 µM. The IC50 (second compound 3.16 µM) was 1.81 µM, the IC50 (second compound 10 µM) was 1.24 µM and the viability, T/C [1] was 66.6%. For the same compound, the viability, T/C [2] was 74.9%, the viability, T/C [3] was 71.8% and the viability, T/C [4] was 71.1%. For the same compound, the viability, T/C (second compound 0.1 µM, first compound 3.16 µM) was 43%, the viability, T/C (second compound 0.1 µM, first compound 10 µM) was 12.9% and the viability, T/C [5] was 76.7%. The viability, T/C [6] was 76.5%, the viability, T/C [7] was 72.3% and the viability, T/C [8] was 63.8%. The viability, T/C (second compound 0.316 µM, first compound 3.16 µM) was 43.1%, the viability, T/C (second compound 0.316 µM, first compound 10 µM) was 11.7% and the viability, T/C [9] was 83.4%. The viability, T/C [10] was 74.4%, the viability, T/C [11] was 65.1% and the viability, T/C [12] was 61.4%. The viability, T/C (second compound 1 µM, first compound 3.16 µM) was 41.4%, the viability, T/C (second compound 1 µM, first compound 10 µM) was 11.3% and the viability, T/C [13] was 76.5%. It also gave a viability, T/C [14] of 88.8%, a viability, T/C [15] of 83.8% and a viability, T/C [16] of 63%. It also gave a viability, T/C (second compound 3.16 µM, first compound 3.16 µM) of 36.5%, a viability, T/C (second compound 3.16 µM, first compound 10 µM) of 12.4% and a viability, T/C [17] of 65.7%. It also gave a viability, T/C [18] of 84.7%, a viability, T/C [19] of 65.6% and a viability, T/C [20] of 54.1%. The viability, T/C (second compound 10 µM, first compound 3.16 µM) was 30.2% and the viability, T/C (second compound 10 µM, first compound 10 µM) was 9.65%.
